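Five compound concentrations were applied to cells in 96-well plates for 48 hours; endpoints were derived by simple linear interpolation of the resulting dose-response curve. GI50: concentration for 50% inhibition of growth.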 Calls of active or inactive are those of the source. No stated cut-off is given here; in the data, active = GI50 up to about 1.1 µM and inactive = higher.
Columns and labels:
Assay in all cases: NCI anticancer screen, dose series, 48 h
786-0 = test system: 786-0
A549 = test system: A549
ACHN = test system: ACHN
COLO 205 = test system: COLO 205
HCT-116 = test system: HCT-116
HL-60 = test system: HL-60
KM12 = test system: KM12
M14 = test system: M14
NCI-H23 = test system: NCI-H23
OVCAR-3 = test system: OVCAR-3
OVCAR-4 = test system: OVCAR-4
RPMI-8226 = test system: RPMI-8226
SF-268 = test system: SF-268
SF-295 = test system: SF-295
SF-539 = test system: SF-539
SK-MEL-5 = test system: SK-MEL-5
SNB-19 = test system: SNB-19
UACC-62 = test system: UACC-62
UO-31 = test system: UO-31
CAKI-1 = test system: CAKI-1

SMILES | GI50 (786-0) | GI50 (A549) | GI50 (ACHN) | GI50 (COLO 205) | GI50 (HCT-116) | GI50 (HL-60) | GI50 (KM12) | GI50 (M14) | GI50 (NCI-H23) | GI50 (OVCAR-3) | GI50 (OVCAR-4) | GI50 (RPMI-8226) | GI50 (SF-268) | GI50 (SF-295) | GI50 (SF-539) | GI50 (SK-MEL-5) | GI50 (SNB-19) | GI50 (UACC-62) | GI50 (UO-31) | GI50 (CAKI-1)
C[N+](C)(C)CC1CCC/C1=N\OC(=O)c1ccccc1 (stereo not given) | > 100 µM (inactive) | > 100 µM (inactive) | > 100 µM (inactive) | > 100 µM (inactive) | > 100 µM (inactive) | > 100 µM (inactive) | > 100 µM (inactive) | > 100 µM (inactive) | > 100 µM (inactive) | > 100 µM (inactive) | > 100 µM (inactive) | > 100 µM (inactive) | > 100 µM (inactive) | > 100 µM (inactive) | > 100 µM (inactive) | > 100 µM (inactive) | > 100 µM (inactive) | > 100 µM (inactive) | > 100 µM (inactive) | –
COc1ccc(CC2(Cc3ccc(OC)cc3)CCOC2=O)cc1 | 44 µM (inactive) | > 100 µM (inactive) | 94.8 µM (inactive) | > 100 µM (inactive) | > 100 µM (inactive) | > 100 µM (inactive) | > 100 µM (inactive) | > 100 µM (inactive) | > 100 µM (inactive) | > 100 µM (inactive) | > 100 µM (inactive) | > 100 µM (inactive) | 45.8 µM (inactive) | 60.1 µM (inactive) | – | – | > 100 µM (inactive) | > 100 µM (inactive) | > 100 µM (inactive) | 67 µM (inactive)
C/C(=C1/N=C(c2cc([N+](=O)[O-])ccc2Cl)N(c2cccc(C)c2)C1=O)c1cc2ccccc2oc1=O | > 100 µM (inactive) | > 100 µM (inactive) | 48.8 µM (inactive) | 45.3 µM (inactive) | 47.4 µM (inactive) | 28.7 µM (inactive) | 64 µM (inactive) | > 100 µM (inactive) | 35.2 µM (inactive) | 28.3 µM (inactive) | – | 20.4 µM (inactive) | > 100 µM (inactive) | > 100 µM (inactive) | – | 14 µM (inactive) | 95.5 µM (inactive) | 21.8 µM (inactive) | > 100 µM (inactive) | > 100 µM (inactive)
COC(=O)c1c(CC(=O)OC(C)C)cc2n(c1=O)Cc1c-2nc2ccccc2c1OC | > 100 µM (inactive) | > 100 µM (inactive) | > 100 µM (inactive) | > 100 µM (inactive) | > 100 µM (inactive) | > 100 µM (inactive) | – | > 100 µM (inactive) | > 100 µM (inactive) | > 100 µM (inactive) | > 100 µM (inactive) | 59 µM (inactive) | > 100 µM (inactive) | > 100 µM (inactive) | – | > 100 µM (inactive) | > 100 µM (inactive) | > 100 µM (inactive) | > 100 µM (inactive) | > 100 µM (inactive)
N/C(=N/O)c1cn(C2OC(CO)C(O)C2O)c2ncnc(NO)c12 (stereo not given) | 0.0556 µM (active) | 0.126 µM (active) | 0.0189 µM (active) | 0.0771 µM (active) | 0.0337 µM (active) | 0.166 µM (active) | – | 0.126 µM (active) | 0.216 µM (active) | 0.255 µM (active) | 0.265 µM (active) | 0.146 µM (active) | 0.164 µM (active) | 0.773 µM (active) | 0.117 µM (active) | 0.151 µM (active) | 0.514 µM (active) | 0.362 µM (active) | 0.084 µM (active) | –
CC(C)=CCc1cc2c(cc1O)OC[C@H]1c3cc4c(cc3O[C@@H]21)OCO4 | 42.1 µM (inactive) | 80.4 µM (inactive) | 42.4 µM (inactive) | > 100 µM (inactive) | 17.1 µM (inactive) | 23.8 µM (inactive) | 39.6 µM (inactive) | 62.1 µM (inactive) | 33.2 µM (inactive) | 37.2 µM (inactive) | 37.4 µM (inactive) | – | 56.6 µM (inactive) | > 100 µM (inactive) | 36.7 µM (inactive) | 20.3 µM (inactive) | 66.1 µM (inactive) | > 100 µM (inactive) | 31.6 µM (inactive) | 25.1 µM (inactive)
